# Assay results from patent US10314823B2, “Substituted 1,2-dihydro-3H-pyrrolo[1,2-c]imidazol-3-one antibacterial compounds” (IDORSIA PHARMACEUTICALS LTD, priority 2015, dated 2019).
# Legend:
# Test in all cases: Bacterial growth minimal inhibitory concentration (CLSI broth microdilution)
# Assay type in all cases: cell-based
# P. aeruginosa ATCC27853 = details: Pseudomonas aeruginosa, ATCC27853; quinolone-sensitive strain; cation-adjusted Mueller-Hinton Broth
# Outline: (§1)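 Broth microdilution in cation-adjusted Mueller-Hinton broth following CLSI M7-A7. MICs are expressed in mg/L. K. pneumoniae A-651 is multiply resistant, including to quinolones; the E. coli and P. aeruginosa strains are quinolone-sensitive.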
# E. coli ATCC25922 = details: Escherichia coli, ATCC25922; quinolone-sensitive strain; cation-adjusted Mueller-Hinton Broth
# Outline: as §1
# K. pneumoniae A-651 = details: Klebsiella pneumoniae, A651; multiply resistant strain (in particular quinolone-resistant); cation-adjusted Mueller-Hinton Broth
# Outline: as §1
MIC (P. aeruginosa ATCC27853) [µg/mL],MIC (E. coli ATCC25922) [µg/mL],MIC (K. pneumoniae A-651) [µg/mL],SMILES
2,0.5,2,"C[C@@](CCN1Cc2cc(C#CC#CC3(F)CCN(C4COC4)CC3)cn2C1=O)(C(=O)NO)S(C)(=O)=O [Example 47, (2R)-4-(6-((4-fluoro-1-(oxetan-3-yl)piperidin-4-yl)buta-1,3-diyn-1-yl)-3-oxo-1H-pyrrolo[1,2-c]imidazol-2(3H)-yl)-N-hydroxy-2-methyl-2-(methylsulfonyl)butanamide]"
4,> 8,> 8,"CN1CCC(O)(C#CC#Cc2cc3n(c2)C(=O)N(CC[C@](C)(C(=O)NO)S(C)(=O)=O)C3)CC1 [Example 48, (2R)—N-hydroxy-4-(6-((4-hydroxy-1-methylpiperidin-4-yl)buta-1,3-diyn-1-yl)-3-oxo-1H-pyrrolo[1,2-c]imidazol-2(3H)-yl)-2-methyl-2-(methylsulfonyl)butanamide]"
1,< 0.063,0.125,"C[C@@](CCN1Cc2cc(C#Cc3ccc(CN4CC(F)C4)cc3)cn2C1=O)(C(=O)NO)S(C)(=O)=O [Example 49, (2R)-4-(6-((4-((3-fluoroazetidin-1-yl)methyl)phenyl)ethynyl)-3-oxo-1H-pyrrolo[1,2-c]imidazol-2(3H)-yl)-N-hydroxy-2-methyl-2-(methylsulfonyl)butanamide]"
2,1,1,"CN1CCN(C(=O)OCC#CC#Cc2cc3n(c2)C(=O)N(CC[C@](C)(C(=O)NO)S(C)(=O)=O)C3)CC1 [Example 50, (3R)-5-(2-(4-(hydroxyamino)-3-methyl-3-(methylsulfonyl)-4-oxobutyl)-3-oxo-2,3-dihydro-1H-pyrrolo[1,2-c]imidazol-6-yl)penta-2,4-diyn-1-yl 4-methylpiperazine-1-carboxylate]"
1,1,4,"C[C@@](CCN1Cc2cc(C#CC#CC3CN(C[C@@H](O)CO)C3)cn2C1=O)(C(=O)NO)S(C)(=O)=O [Example 51, (2R)-4-(6-((1-((R)-2,3-dihydroxypropyl)azetidin-3-yl)buta-1,3-diyn-1-yl)-3-oxo-1H-pyrrolo[1,2-c]imidazol-2(3H)-yl)-N-hydroxy-2-methyl-2-(methylsulfonyl)butanamide]"
0.5,0.5,0.5,"[2H]C([2H])N1CC(C#CC#Cc2cc3n(c2)C(=O)N(CC[C@](C)(C(=O)NO)S(C)(=O)=O)C3)C1 [Example 52, (2R)—N-hydroxy-2-methyl-4-(6-((1-(methyl-d2)azetidin-3-yl)buta-1,3-diyn-1-yl)-3-oxo-1H-pyrrolo[1,2-c]imidazol-2(3H)-yl)-2-(methylsulfonyl)butanamide]"
4,4,4,"C[C@@](CCN1Cc2cc(C#CC#C[C@@H]3C[C@H](F)CN3)cn2C1=O)(C(=O)NO)S(C)(=O)=O.Cl [Example 53, (2R)-4-(6-(((2S,4S)-4-fluoropyrrolidin-2-yl)buta-1,3-diyn-1-yl)-3-oxo-1H-pyrrolo[1,2-c]imidazol-2(3H)-yl)-N-hydroxy-2-methyl-2-(methylsulfonyl)butanamide hydrochloride]"
0.5,0.25,0.5,"CCN1CC(C#CC#Cc2cc3n(c2)C(=O)N(CC[C@](C)(C(=O)NO)S(C)(=O)=O)C3)C1 [Example 54, (2R)-4-(6-((1-ethylazetidin-3-yl)buta-1,3-diyn-1-yl)-3-oxo-1H-pyrrolo[1,2-c]imidazol-2(3H)-yl)-N-hydroxy-2-methyl-2-(methylsulfonyl)butanamide]"
1,0.125,0.25,"C[C@@](CCN1Cc2cc(C#CC#CC3CN(CC4CC4)C3)cn2C1=O)(C(=O)NO)S(C)(=O)=O [Example 55, (2R)-4-(6-((1-(cyclopropylmethyl)azetidin-3-yl)buta-1,3-diyn-1-yl)-3-oxo-1H-pyrrolo[1,2-c]imidazol-2(3H)-yl)-N-hydroxy-2-methyl-2-(methylsulfonyl)butanamide]"
0.5,0.25,1,"C[C@@](CCN1Cc2cc(C#CC#C[C@H]3C[C@@H]3[C@@H](O)CO)cn2C1=O)(C(=O)NO)S(C)(=O)=O [Example 56, (2R)-4-(6-(((1S,2S)-2-((R)-1,2-dihydroxyethyl)cyclopropyl)buta-1,3-diyn-1-yl)-3-oxo-1H-pyrrolo[1,2-c]imidazol-2(3H)-yl)-N-hydroxy-2-methyl-2-(methylsulfonyl)butanamide]"
0.063,0.125,0.5,"C[C@@](CCN1Cc2cc(C#CC#CC3CN(C4CC4)C3)cn2C1=O)(C(=O)NO)S(C)(=O)=O [Example 57, (2R)-4-(6-((1-cyclopropylazetidin-3-yl)buta-1,3-diyn-1-yl)-3-oxo-1H-pyrrolo[1,2-c]imidazol-2(3H)-yl)-N-hydroxy-2-methyl-2-(methylsulfonyl)butanamide]"
0.25,0.5,4,"C[C@@](CCN1Cc2cc(C#CC#CC3CN(CC(F)(F)F)C3)cn2C1=O)(C(=O)NO)S(C)(=O)=O [Example 58, (2R)—N-hydroxy-2-methyl-2-(methylsulfonyl)-4-(3-oxo-6-((1-(2,2,2-trifluoroethyl)azetidin-3-yl)buta-1,3-diyn-1-yl)-1H-pyrrolo[1,2-c]imidazol-2(3H)-yl)butanamide]"
0.5,0.5,0.5,"[2H]CN1CC(C#CC#Cc2cc3n(c2)C(=O)N(CC[C@](C)(C(=O)NO)S(C)(=O)=O)C3)C1 [Example 60, (2R)—N-hydroxy-2-methyl-4-(6-((1-(methyl-d)azetidin-3-yl)buta-1,3-diyn-1-yl)-3-oxo-1H-pyrrolo[1,2-c]imidazol-2(3H)-yl)-2-(methylsulfonyl)butanamide]"
0.5,0.063,0.5,"C[C@@](CCN1Cc2cc(C#CC#CC3CN(CCF)C3)cn2C1=O)(C(=O)NO)S(C)(=O)=O [Example 61, (2R)-4-(6-((1-(2-fluoroethyl)azetidin-3-yl)buta-1,3-diyn-1-yl)-3-oxo-1H-pyrrolo[1,2-c]imidazol-2(3H)-yl)-N-hydroxy-2-methyl-2-(methylsulfonyl)butanamide]"
1,0.125,0.125,"C[C@@](CCN1Cc2cc(C#CC#CC3CN(C4CCC4)C3)cn2C1=O)(C(=O)NO)S(C)(=O)=O [Example 62, (2R)-4-(6-((1-cyclobutylazetidin-3-yl)buta-1,3-diyn-1-yl)-3-oxo-1H-pyrrolo[1,2-c]imidazol-2(3H)-yl)-N-hydroxy-2-methyl-2-(methylsulfonyl)butanamide]"
4,1,2,"C[C@@](CCN1Cc2cc(C#CC#CC3CN(C4CS(=O)(=O)C4)C3)cn2C1=O)(C(=O)NO)S(C)(=O)=O [Example 63, (2R)-4-(6-((1-(1,1-dioxidothietan-3-yl)azetidin-3-yl)buta-1,3-diyn-1-yl)-3-oxo-1H-pyrrolo[1,2-c]imidazol-2(3H)-yl)-N-hydroxy-2-methyl-2-(methylsulfonyl)butanamide]"
0.5,0.25,1,"C[C@@](CCN1Cc2cc(C#CC#CC3CN(CCCO)C3)cn2C1=O)(C(=O)NO)S(C)(=O)=O [Example 64, (2R)—N-hydroxy-4-(6-((1-(3-hydroxypropyl)azetidin-3-yl)buta-1,3-diyn-1-yl)-3-oxo-1H-pyrrolo[1,2-c]imidazol-2(3H)-yl)-2-methyl-2-(methylsulfonyl)butanamide]"
1,1,1,"CN1CC(C)(C#CC#Cc2cc3n(c2)C(=O)N(CC[C@](C)(C(=O)NO)S(C)(=O)=O)C3)C1 [Example 65, (2R)-4-(6-((1,3-dimethylazetidin-3-yl)buta-1,3-diyn-1-yl)-3-oxo-1H-pyrrolo[1,2-c]imidazol-2(3H)-yl)-N-hydroxy-2-methyl-2-(methylsulfonyl)butanamide]"
2,0.5,1,"C[C@@](CCN1Cc2cc(C#CC#CC3(F)CN(CCO)C3)cn2C1=O)(C(=O)NO)S(C)(=O)=O [Example 66, (2R)-4-(6-((3-fluoro-1-(2-hydroxyethyl)azetidin-3-yl)buta-1,3-diyn-1-yl)-3-oxo-1H-pyrrolo[1,2-c]imidazol-2(3H)-yl)-N-hydroxy-2-methyl-2-(methylsulfonyl)butanamide]"
1,2,2,"C[C@@](CCN1Cc2cc(C#CC#CC3CN(CC(CO)CO)C3)cn2C1=O)(C(=O)NO)S(C)(=O)=O [Example 67, (2R)—N-hydroxy-4-(6-((1-(3-hydroxy-2-(hydroxymethyl)propyl)azetidin-3-yl)buta-1,3-diyn-1-yl)-3-oxo-1H-pyrrolo[1,2-c]imidazol-2(3H)-yl)-2-methyl-2-(methylsulfonyl)butanamide]"
1,0.063,0.25,"C[C@@](CCN1Cc2cc(C#CC#CC3CN(CC(F)F)C3)cn2C1=O)(C(=O)NO)S(C)(=O)=O [Example 68, (2R)-4-(6-((1-(2,2-difluoroethyl)azetidin-3-yl)buta-1,3-diyn-1-yl)-3-oxo-1H-pyrrolo[1,2-c]imidazol-2(3H)-yl)-N-hydroxy-2-methyl-2-(methylsulfonyl)butanamide]"
0.5,0.25,0.5,"C[C@@](CCN1Cc2cc(C#CC#CC3CN(C4CC(O)C4)C3)cn2C1=O)(C(=O)NO)S(C)(=O)=O (stereo partly drawn) [Example 69, (2R)—N-hydroxy-4-(6-((1-(3-hydroxycyclobutyl)azetidin-3-yl)buta-1,3-diyn-1-yl)-3-oxo-1H-pyrrolo[1,2-c]imidazol-2(3H)-yl)-2-methyl-2-(methylsulfonyl)butanamide]"
